Assay results: EP4289427A1, “DIHYDRO[1,8]NAPHTHYRIDIN-7-ONE AND PYRIDO[3,2-B][1,4]OXAZIN-3-ONE FOR USE IN TREATING CANCER, AND METASTASES IN PARTICULAR” (Anagenesis Biotechnologies, priority 2022, dated 2023)

What was measured:
RD cells [1] = assay: Cytotoxicity assay (CellTiter-Glo 2.0) on RD cells; format: cell-based, Human; conditions: for IC50: Homo sapiens
In short: (§1)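 Compound-treated cells, incubation time varying by line; CellTiter-Glo 2.0 ATP luminescence; relative IC50.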

4T1 cells [2] = assay: Cytotoxicity assay (CellTiter-Glo 2.0) on 4T1 cells; format: cell-based, Mouse; conditions: incubation 2 days; for IC50: Mus musculus, 48 h
In short: as §1

MDA-MB-231 cells [3] = assay: Cytotoxicity assay (CellTiter-Glo 2.0) on MDA-MB-231 cells; format: cell-based, Human; conditions: incubation 3 days; for IC50: Homo sapiens, 72 h
In short: as §1

EoL-1 cells = assay: Cytotoxicity assay (CellTiter-Glo 2.0) on EoL-1 cells; format: cell-based, Human; conditions: incubation 1 day; for IC50: Homo sapiens, EOL1, 24 h
In short: as §1

HUVECs = assay: Tube formation assay (anti-angiogenic activity); format: cell-based, human; conditions: incubation 16 to 18 hours; for IC50: Homo sapiens, HUVEC
In short: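 HUVECs plated at 5000 cells/well on reduced growth factor basement membrane matrix, then exposed to compounds for 16 to 18 hours at 37°C. Cells stained with calcein-AM; tube networks imaged by confocal fluorescence microscopy and quantified.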

4T1 cells [4] = assay: Epithelial-mesenchymal transition marker expression by qRT-PCR; format: cell-based, Mouse; set-up: key: ↗: increased expression; ↘: decreased expression; =: unchanged expression levels; conditions: 24 hours, expression normalized against RPL13
Description: The epithelial-mesenchymal transition (hereafter "EMT") is a process by which epithelial cells lose their cell polarity and cell-cell adhesion while gaining migratory and invasive properties to become mesenchymal stem cells. EMT is commonly measured by quantifying both epithelial and mesenchymal marker's expression by quantitative reverse-transcription polymerase chain reaction (hereafter "qRT-PCR"). EMT inhibition is observed when epithelial markers are stable or increased while mesenchymal markers are decreased.
4T1 cells were treated with compounds to be tested or DMSO for 24 hours. 4T1 cells were then harvested directly in NucleoZol lysis buffer (cat. no. 740404.200 from Macherey-Nagel), according to the manufacturer's instructions. Total RNA was extracted using the NucleoSpin RNA set for NucleoZol (cat. no. 740406.50 from Macherey-Nagel). The quantity and purity of RNA was determined using a Quickdrop (Molecular Devices). RT-PCR was performed on 500 ng total RNA using iScript gDNA clear cDNA synthesis Kit (cat.no. 1725035 from Biorad). The qPCR was run on a QuantStudio 5 real time thermocycler (Applied Biosystems), with PowerUp SYBR Green Master Mix (cat.no. A25742 from Fisher Scientific) and the primers listed in Table 16.
Expression data of EMT markers have been normalized against expression data of the housekeeping gene RPL13.

RD cells [5] = assay: Differentiation of RD cells into myotubes (alpha-actinin staining); format: cell-based, Human; conditions: 7 days, Figure 3
Procedure: RD cells are cancer cells of muscle origin that arose from myogenic precursors that fail to complete muscle differentiation. One strategy to stop their progression is to differentiate them into myotubes.
To allow differentiation, RD cells were seeded at a density of 3500 cells/well in a 384-well plate coated with collagen type I, in DMEM (4,5g/L glucose) with L-Gln (cat.no. 41965-039 from Gibco) supplemented with 5% of knockout serum replacement (cat.no. 10828-028 from Gibco), 1% PenStrep (Gibco), 1% MEM NEAA (Gibco) and 0.1 mM 2-mercaptoethanol (Gibco) (hereafter "K5 medium"). Compounds to be tested were then added onto the cells and incubated for 7 days at 37°C. On day 7, cells were fixed with 4% paraformaldehyde solution and immunostained for α-actinin (cat.no. EA-53 from Sigma, at 1/30000).

MDA-MB-231 cells [6] = assay: Scratch (wound healing) assay, cell migration; format: cell-based, Human; conditions: 24 hours, Figure 1
Procedure: Cell migration is involved in several pathological cancer processes such as tumor invasion, neoangiogenesis and metastasis. Scratch (or wound healing) assay is a method to study two-dimensional cell migration in vitro. It is based on the observation that cells growing in a monolayer migrate to reestablish cell contacts after a mechanical scratch wound.
The MDA-MB-231 cells were seeded into a 24-well plate and grown to confluent density. A scrape was made in each well using a pipette tip. Then, the cells monolayers were incubated for 2 hours with 5 µg/ml mitomycin C to stop cell proliferation. The cells were treated with the compounds to be tested for 24 hours. The cells were stained using CellMask Green actin tracking stain (cat.no. A57246 from Fisher Scientific) at time zero and at endpoint. Pictures were acquired using a fluorescence microscope (IXM from Molecular Device). The scratch area was measured with the ImageJ software. The recovery of the scratch area was calculated as a percentage of the scratch area at time zero.

Structure (SMILES) | Cytotoxicity (RD cells [1]; 2 day-treatment) | Cytotoxicity (RD cells [1]; 4 day-treatment) | IC50 (RD cells [1]; 48 h, 2 day-treatment) [nM] | IC50 (RD cells [1]; 96 h, 4 day-treatment) [nM] | IC50 (4T1 cells [2]) [nM] | Cytotoxicity (4T1 cells [2]) | IC50 (MDA-MB-231 cells [3]) [nM] | Cytotoxicity (MDA-MB-231 cells [3]) | IC50 (EoL-1 cells) [nM] | Cytotoxicity (EoL-1 cells) | IC50 (HUVECs) [nM] | Angiogenesis inhibition (HUVECs) | Epithelial markers E-cadherin (4T1 cells [4]) | Epithelial markers EpCAM (4T1 cells [4]) | Mesenchymal markers Fibronectin (4T1 cells [4]) | Mesenchymal markers Vimentin (4T1 cells [4]) | differentiation into myotubes (RD cells [5]) | migration in the scratch assay (MDA-MB-231 cells [6])
CC(C)(C)c1cc(NC(=O)Nc2ccc(Oc3ccnc4c3CCC(=O)N4)cc2C(F)(F)F)on1 [Compound 023, 1-(3-tert-butylisoxazol-5-yl)-3-[4-[(7-oxo-6,8-dihydro-5H-1,8-naphthyridin-4-yl)oxy]-2-(trifluoromethyl)phenyl]urea] | ++ (50% ≤ cytotoxicity < 85%) | ++ (50% ≤ cytotoxicity < 85%) | 1000 to 5000 | 1000 to 5000 | 1000 to 5000 | +++ (cytotoxicity ≥ 85%) | 1000 to 5000 | ++ (50% ≤ cytotoxicity < 85%) | 1 to 10 | +++ (cytotoxicity ≥ 85%) | 100 to 500 | +++ (angiogenesis inhibition ≥ 80%) | ↗ | = | ↘ | ↘ | – | –
CSc1cc(Oc2ccnc3c2OCC(=O)N3)ccc1NC(=O)Nc1cc(C(C)(C)C)on1 [Compound 021, 1-(5-tert-butylisoxazol-3-yl)-3-[2-methylsulfanyl-4-[(3-oxo-4H-pyrido[3,2-b][1,4]oxazin-8-yl)oxy]phenyl]urea] | ++ (50% ≤ cytotoxicity < 85%) | ++ (50% ≤ cytotoxicity < 85%) | 1000 to 5000 | 1000 to 5000 | 1000 to 5000 | ++ (50% ≤ cytotoxicity < 85%) | 1000 to 5000 | ++ (50% ≤ cytotoxicity < 85%) | < 1 | +++ (cytotoxicity ≥ 85%) | 100 to 500 | +++ (angiogenesis inhibition ≥ 80%) | – | – | – | – | dose-dependent differentiation into myotubes | –
Cc1ccc(-n2nc(C(C)(C)C)cc2NC(=O)Nc2ccc(Oc3ccnc4c3OCC(=O)N4)cc2C(F)(F)F)cn1 [Compound 040, 1-[5-tert-butyl-2-(6-methyl-3-pyridyl)pyrazol-3-yl]-3-[4-[(3-oxo-4H-pyrido[3,2-b][1,4]oxazin-8-yl)oxy]-2-(trifluoromethyl)phenyl]urea] | ++ (50% ≤ cytotoxicity < 85%) | ++ (50% ≤ cytotoxicity < 85%) | 5000 to 10000 | 5000 to 10000 | < 1000 | +++ (cytotoxicity ≥ 85%) | 1000 to 5000 | ++ (50% ≤ cytotoxicity < 85%) | 10 to 100 | ++ (50% ≤ cytotoxicity < 85%) | 100 to 500 | +++ (angiogenesis inhibition ≥ 80%) | – | – | – | – | – | inhibition of their migration
CSc1cc(Oc2ccnc3c2CCC(=O)N3)ccc1NC(=O)Nc1cc(C(C)(C)C)nn1-c1cccc(F)c1 [Compound 013, 1-[5-tert-butyl-2-(3-fluorophenyl)pyrazol-3-yl]-3-[2-methylsulfanyl-4-[(7-oxo-6,8-dihydro-5H-1,8-naphthyridin-4-yl)oxy]phenyl]urea] | ++ (50% ≤ cytotoxicity < 85%) | ++ (50% ≤ cytotoxicity < 85%) | 1000 to 5000 | 5000 to 10000 | < 1000 | +++ (cytotoxicity ≥ 85%) | 1000 to 5000 | ++ (50% ≤ cytotoxicity < 85%) | 1 to 10 | +++ (cytotoxicity ≥ 85%) | < 100 | +++ (angiogenesis inhibition ≥ 80%) | – | – | – | – | dose-dependent differentiation into myotubes | –
CSc1cc(Oc2ccnc3c2CCC(=O)N3)ccc1NC(=O)Nc1cc(C(C)(C)C)nn1-c1cncc(F)c1 [Compound 027, 1-[5-tert-butyl-2-(5-fluoro-3-pyridyl)pyrazol-3-yl]-3-[2-methylsulfanyl-4-[(7-oxo-6,8-dihydro-5H-1,8-naphthyridin-4-yl)oxy]phenyl]urea] | ++ (50% ≤ cytotoxicity < 85%) | ++ (50% ≤ cytotoxicity < 85%) | 1000 to 5000 | 1000 to 5000 | < 1000 | +++ (cytotoxicity ≥ 85%) | < 1000 | ++ (50% ≤ cytotoxicity < 85%) | 1 to 10 | +++ (cytotoxicity ≥ 85%) | < 100 | +++ (angiogenesis inhibition ≥ 80%) | ↗ | = | ↘ | ↘ | – | –
CSc1cc(Oc2ccnc3c2OCC(=O)N3)ccc1NC(=O)Nc1cc(C(C)(C)C)nn1-c1cccc(F)c1 [Compound 012, 1-[5-tert-butyl-2-(3-fluorophenyl)pyrazol-3-yl]-3-[2-methylsulfanyl-4-[(3-oxo-4H-pyrido[3,2-b][1,4]oxazin-8-yl)oxy]phenyl]urea] | ++ (50% ≤ cytotoxicity < 85%) | ++ (50% ≤ cytotoxicity < 85%) | 1000 to 5000 | 5000 to 10000 | 1000 to 5000 | +++ (cytotoxicity ≥ 85%) | 1000 to 5000 | ++ (50% ≤ cytotoxicity < 85%) | 1 to 10 | ++ (50% ≤ cytotoxicity < 85%) | < 100 | +++ (angiogenesis inhibition ≥ 80%) | – | – | – | – | – | –
CSc1cc(Oc2ccnc3c2CCC(=O)N3)ccc1NC(=O)Nc1cc(C(C)(C)C)no1 [Compound 008, 1-(3-(tert-butyl)isoxazol-5-yl)-3-(2-(methylthio)-4-((7-oxo-5,6,7,8-tetrahydro-1,8-naphthyridin-4-yl)oxy)phenyl)urea] | ++ (50% ≤ cytotoxicity < 85%) | +++ (cytotoxicity ≥ 85%) | < 1000 | < 1000 | < 1000 | +++ (cytotoxicity ≥ 85%) | < 1000 | ++ (50% ≤ cytotoxicity < 85%) | 1 to 10 | +++ (cytotoxicity ≥ 85%) | < 100 | +++ (angiogenesis inhibition ≥ 80%) | – | – | – | – | – | –
